Measured values from patent publication US20070098636A1, “Method of identifying responders to treatment with insulin sensitizers” (priority 2003, published 2007).

How the values were obtained:
db/db mice = assay: Adiponectin complex distribution in serum of treated db/db mice (velocity sedimentation, quantitative Western blot); assay type: in vivo, mouse; details: male db/db mice, 10 mg/kg-day by gavage, following 11 days of treatment
Experimental: (§1) Velocity sedimentation/gel filtration chromatography for separation of adiponectin complexes—5-20% sucrose gradients in 10 mM HEPES pH 8, 125 mM NaCl were poured stepwise (5%, 10%, 15%, 20%) in 2-ml thin-walled ultracentrifuge tubes (Becton Dickinson) and allowed to equilibrate overnight at 4° C. Following layering of the sample on top (diluted 1:10 with 10 mM HEPES pH 8, 125 mM NaCl in the case of serum), the gradients were spun at 55,000 RPM for four hours at 4° C. in a TLS55 rotor in a Beckman TL-100 tabletop ultracentrifuge. 150 μL gradient fractions were sequentially retrieved from the top of the gradient and analyzed by quantitative Western blot analysis.
(§2) Immunoblotting—Separation of proteins by SDS-PAGE, fluorography, and immunoblotting were performed as described previously (20). Primary and secondary antibodies were diluted in TBS with 0.05% Tween-20 and 1% BSA. Horseradish peroxidase conjugated secondary antibodies were detected with enhanced chemiluminescence according to the manufacturer's instructions (Pierce). For quantitative Western blotting, proteins were transferred to BA83 nitrocellulose (Schleicher & Schuell) after SDS-PAGE. […] Blots were analyzed with a Phosphoimager (Molecular Dynamics) and fractions 4-6 and 9-11 from velocity sedimentation (LMW and […] adiponectin, respectively) were quantitated with Imagequant Software. […]

non-diabetic human males = assay: Human Clinical Study A: plasma adiponectin and adiponectin complexes pre- and post-treatment; assay type: in vivo; details: 4 mg bid for 14 days
Experimental: as §1, §2

CN(CCOc1ccc(CC2SC(=O)NC2=O)cc1)c1ccccn1 (stereo not drawn) [rosiglitazone]
percentage of adiponectin found in the high molecular weight (HMW) form (db/db mice): approximately 45 % of total circulating adiponectin
total adiponectin relative to placebo (non-diabetic human males): about 2 fold
HMW/total adiponectin ratio, post-treatment value (non-diabetic human males; pre-treatment value 20-25%): 45-50%
